Type in all cases: cell-based
One assay deals with HT-29. Nature of the assay: Viability assay with HT-29. The conditions noted are these: HT-29, viability assay per Example 57. How it is done:
(§1) NCI-H460 (Epithelial lung tissue; carcinoma; large cell lung cancer) were cultured in RPMI Medium 1640 (Invitrogen-22400105) supplemented with 10% fetal bovine serum (FBS; Invitrogen-10099141). All the cell lines were maintained in a humidified incubator at 37° C. with 5% CO2. Cell culture media and supplements were purchased from Invitrogen, and tissue culture flasks were purchased from Corning, 96-well plates were purchased from Greiner. CellTiter-Glo Luminescent Cell Viability Assay kits were purchased from Promega (Promega-G7573), cells counter Vi-Cell was purchased from Beckman, D300e digital dispenser was purchased from Tecan, detection instrument Envision was purchased from PerkinElmer.
(§2) Paclitaxel was purchased from SELLECK, test compounds, such as any one of the compounds disclosed herein, attained solubility in DMSO and when diluted into culture media. DMSO, solutions containing the test compounds, and culture media were warmed to 37° C. or room temperature for the solution preparation and dilutions.
(§3) NCI-H460 Cell line were seeded in 96-well plates (1200/well) and allowed to adhere to overnight (100 uL/well), for drug treatments with 2 fold dilution, 9 dose points, triplicates or vehicle control, compound stock solutions were prepared in DMSO and use D300e digital dispenser to add compounds to the wells to give the indicated final drug concentrations. Final DMSO concentration was 0.5%. Cellular ATP concentrations were assessed by using the CellTiter-Glo Cell Viability Assay as per the manufacturer's instructions 72 h after compounds addition. Additional cells lines were assayed with any one of the compounds disclosed herein according to the procedures described for the viability assay with NCI-H460.
A viability assay with HT-29 (Colorectal adenocarcinoma) was performed with compounds listed in Table 18 according to the procedures described in Example 57.

The test system of a further assay is NCI-H460. Nature of the assay: Viability assay with NCI-H460 (CellTiter-Glo cytotoxicity assay, 72 h). Particulars: NCI-H460 cell line, 72 h after compounds addition. How it is done: as §1, §2, §3
In general terms: ATP-based viability assays read luminescence as a measure of living cells.

Another assay relates to MIA PaCa-2. Nature of the assay: Viability assay with MIA PaCa-2. Particulars: MIA PaCa-2, viability assay per Example 57. Here is the method:
as §1, §2, §3
A viability assay with MIA PaCa-2 (Epithelial pancreas tissue; carcinoma) was performed with compounds listed in Table 15, according to the procedures described in Example 57.

pEC50: −log10 of the molar value. Where a name gives a salt, the structure may show the parent alone. Some results are limits rather than exact numbers.

Drawing on US20170158702A1, “MULTIVALENT RAS BINDING COMPOUNDS” (KYRAS THERAPEUTICS, INC., priority 2015, published 2017), this text covers EC50 for 39 compounds.

Take `Cn1nccc1CN1CCN(Cc2ccc3c(c2)c(-c2ccc(OC(F)(F)F)cc2)cn3CCCN)CC1` [C128; HCl]: the pEC50 in the assay on HT-29, in the assay on NCI-H460 and with MIA PaCa-2 was ≥ 5.30 each time.
Consider `NCCCn1cc(-c2ccc(OC(F)(F)F)cc2)c2cc(NC3CCN(Cc4ccccc4Cl)CC3)ccc21` [C129; HCl], for which the pEC50 in the assay on HT-29, in the assay with NCI-H460 and with MIA PaCa-2 was ≥ 5.30 throughout.
Turning to `NCCCn1cc(-c2ccc(OC(F)(F)F)cc2)c2cc(CN3CCC(CC(F)(F)F)CC3)ccc21` [C130; HCl], the pEC50 with HT-29, with NCI-H460 and in the assay on MIA PaCa-2 was ≥ 5.30 throughout.
On to `NCCCn1cc(-c2ccccc2CCN)c2cc(CN3CCN(Cc4ccccc4Cl)CC3)ccc21` [C131; HCl], for which the pEC50 (commonly the negative decadic logarithm of the EC50, by convention in mol/L) with HT-29 is ≥ 5.30.
As for `CC(C)(N)CCCn1cc(-c2ccc(OC(F)(F)F)cc2)c2cc(CN3CCN(Cc4ccccc4Cl)CC3)ccc21` [C132; Formic acid], the pEC50 in the assay with HT-29, with NCI-H460 and in the assay on MIA PaCa-2 was ≥ 5.30 throughout.
For `COc1ccc(-c2cn(CCCCN)c3ccc(CN4CC5CCC(C4)N5Cc4ccccc4Cl)cc23)cc1` [C133; HCl], the pEC50 with HT-29, in the assay with NCI-H460 and with MIA PaCa-2 was ≥ 5.30 throughout.
Consider `NC1CCC(n2cc(-c3ccc(OC(F)(F)F)cc3)c3cc(CN4CCN(Cc5ccccc5Cl)CC4)ccc32)C1` (stereo not shown) [C134; HCl], for which the pEC50 in the assay with HT-29, in the assay on NCI-H460 and with MIA PaCa-2 was ≥ 5.30 each time.
`NCCCn1cc(-c2ccc(OC(F)(F)F)cc2)c2cc(CN3CCN(Cc4ccc(Cl)cc4Cl)CC3)ccc21` [C135; HCl]: the pEC50 in the assay on HT-29, with NCI-H460 and with MIA PaCa-2 was ≥ 5.30 in each case.
In the case of `NCCCn1cc(-c2ccc(OC(F)(F)F)cc2)c2cc(CN3CCN(Cc4ccc(C(F)(F)F)cc4)CC3)ccc21` [C136; HCl], the pEC50 in the assay with HT-29, in the assay on NCI-H460 and in the assay with MIA PaCa-2 was ≥ 5.30 throughout.
Turning to `NCCCn1cc(-c2ccc(OC(F)(F)F)cc2)c2cc(CN3CCN(Cc4ccc(Cl)cc4)CC3)ccc21` [C137; HCl], the pEC50 with HT-29, with NCI-H460 and with MIA PaCa-2 was ≥ 5.30 in each case.
For `NCCCn1cc(-c2ccc(OC(F)(F)F)cc2)c2cc(CN3CCN(Cc4ccc(Cl)c(Cl)c4)CC3)ccc21` [C138; HCl], the pEC50 in the assay with HT-29, in the assay on NCI-H460 and in the assay with MIA PaCa-2 was ≥ 5.30 throughout.
For the compound `Cc1cc(Cl)ccc1CN1CCN(Cc2ccc3c(c2)c(-c2ccc(OC(F)(F)F)cc2)cn3CCCN)CC1` [C139; HCl], the negative-log EC50 (pEC50) in the assay with HT-29, with NCI-H460 and in the assay on MIA PaCa-2 was ≥ 5.30 throughout.
As for `NCCCn1cc(-c2ccc(OC(F)(F)F)cc2)c2cc(CN3CCN(CCc4ccccc4Cl)CC3)ccc21` [C140; HCl], the negative-log EC50 (pEC50) in the assay with HT-29, in the assay on NCI-H460 and with MIA PaCa-2 was ≥ 5.30 in each case.
Regarding `COc1ccc(-c2cn(CCCN)c3ccc(CN4CCN(Cc5ccccc5Cl)CC4)cc23)cn1` [C141; HCl], the pEC50 with HT-29, in the assay on NCI-H460 and with MIA PaCa-2 was ≥ 5.30 throughout.
On to `NCCCn1cc(-c2ccc(CO)cc2)c2cc(CN3CCN(Cc4ccccc4Cl)CC3)ccc21` [C142; Formic Acid], for which the pEC50 in the assay with HT-29 was 5.00 to 5.30; in the assay on NCI-H460, ≥ 5.30; in the assay with MIA PaCa-2, 5.00 to 5.30.
As for `COc1ncc(-c2cn(CCCN)c3ccc(CN4CCN(Cc5ccccc5Cl)CC4)cc23)cn1` [C143; HCl], the pEC50 in the assay with HT-29, in the assay on NCI-H460 and in the assay on MIA PaCa-2 was 5.00 to 5.30 throughout.
In the case of `NCCCn1cc(-c2ccc(OC(F)(F)F)cc2)c2c(CN3CCN(CCOc4ccc(Cl)cc4)CC3)cccc21` [C144; HCl], the negative logarithm of the EC50 (pEC50) in the assay on HT-29, in the assay on NCI-H460 and with MIA PaCa-2 was ≥ 5.30 throughout.
As for `Cc1cccnc1CN1CCN(Cc2ccc3c(c2)c(-c2ccc(OC(F)(F)F)cc2)cn3CCCN)CC1` [C145; HCl], the pEC50 with HT-29, in the assay with NCI-H460 and in the assay with MIA PaCa-2 was ≥ 5.30 in each case.
Regarding `Cc1ccc(CN2CCN(Cc3ccc4c(c3)c(-c3ccc(OC(F)(F)F)cc3)cn4CCCN)CC2)cc1` [C146; HCl], the pEC50 with HT-29, with NCI-H460 and in the assay on MIA PaCa-2 was ≥ 5.30 in each case.
Turning to `NCCCn1cc(-c2ccc(OC(F)(F)F)cc2)c2c(CN3CCN(CCc4ccccc4Cl)CC3)cccc21` [C147; HCl], the pEC50 in the assay on HT-29, in the assay with NCI-H460 and in the assay with MIA PaCa-2 was ≥ 5.30 in each case.
Consider `NCc1ccc(-n2cc(-c3ccc(OC(F)(F)F)cc3)c3cc(CN4CCN(Cc5ccccc5Cl)CC4)ccc32)cc1` [C149; Formic Acid], for which the negative logarithm of the EC50 (pEC50) in the assay on HT-29, in the assay with NCI-H460 and in the assay with MIA PaCa-2 was ≥ 5.30 in each case.
`NCc1cccc(-n2cc(-c3ccc(OC(F)(F)F)cc3)c3cc(CN4CCN(Cc5ccccc5Cl)CC4)ccc32)c1` [C150; Formic acid]: the pEC50 with HT-29, with NCI-H460 and in the assay on MIA PaCa-2 was ≥ 5.30 in each case.
As to `NCCCn1cc(-c2ccc(OC(F)(F)F)cc2)c2cc(CN3CCN(Cc4ncccc4Cl)CC3)ccc21` [C151; HCl], the pEC50 in the assay on HT-29, in the assay on NCI-H460 and in the assay with MIA PaCa-2 was ≥ 5.30 throughout.
Turning to `NCCCn1cc(-c2cccc(CO)c2)c2cc(CN3CCN(Cc4ccccc4Cl)CC3)ccc21` [C152; HCl], the pEC50 in the assay with HT-29, in the assay on NCI-H460 and in the assay with MIA PaCa-2 was ≥ 5.30 each time.
In the case of `NCCCn1cc(-c2ccc(OC(F)(F)F)cc2)c2cc(S(=O)(=O)N3CCN(Cc4ccccc4Cl)CC3)ccc21` [C153; Formic Acid], the negative-log EC50 (pEC50) in the assay on HT-29, in the assay with NCI-H460 and in the assay on MIA PaCa-2 was ≥ 5.30 each time.
For `COc1cccc(Cl)c1-c1cn(CCCN)c2ccc(CN3CCN(Cc4c(Cl)cccc4Cl)CC3)cc12` [C154; HCl], the pEC50 in the assay on HT-29, in the assay on NCI-H460 and in the assay on MIA PaCa-2 was ≥ 5.30 in each case.
As for `FC(F)(F)Oc1ccc(-c2cn(C3CCNCC3)c3ccc(CN4CCN(Cc5ccccc5Cl)CC4)cc23)cc1` [C170; HCl], the negative logarithm of the EC50 (pEC50) in the assay with HT-29, in the assay with NCI-H460 and with MIA PaCa-2 was ≥ 5.30 throughout.
Regarding `FC(F)(F)Oc1ccc(-c2cn(CC3CCNCC3)c3ccc(CN4CCN(Cc5ccccc5Cl)CC4)cc23)cc1` [C171; HCl], the negative logarithm of the EC50 (pEC50) in the assay on HT-29, in the assay on NCI-H460 and in the assay on MIA PaCa-2 was ≥ 5.30 throughout.
In the case of `NCCCn1nc(-c2ccc(OC(F)(F)F)cc2)c2cc(CN3CCN(Cc4ccccc4Cl)CC3)ccc21` [C178; HCl], the pEC50 in the assay with HT-29, in the assay with NCI-H460 and in the assay with MIA PaCa-2 was ≥ 5.30 each time.
`NCCCn1cc(-c2cccc(C(N)=O)c2)c2cc(CN3CCN(Cc4ccccc4Cl)CC3)ccc21` [C179; HCl]: the negative logarithm of the EC50 (pEC50) in the assay with HT-29, with NCI-H460 and in the assay with MIA PaCa-2 was ≥ 5.30 each time.
In the case of `NCCCn1cc(-c2ccc(C(N)=O)cc2)c2cc(CN3CCN(Cc4ccccc4Cl)CC3)ccc21` [C180; HCl], the pEC50 with HT-29, in the assay with NCI-H460 and with MIA PaCa-2 was ≥ 5.30 throughout.
Take `NCCCn1cc(-c2ccccc2CO)c2cc(CN3CCN(Cc4ccccc4Cl)CC3)ccc21` [C181; HCl]: the negative-log EC50 (pEC50) with HT-29, with NCI-H460 and in the assay on MIA PaCa-2 was ≥ 5.30 throughout.
For the compound `NCCCn1nc2ccc(CN3CCN(Cc4ccccc4Cl)CC3)cc2c1-c1ccc(OC(F)(F)F)cc1` [C182; HCl], the pEC50 in the assay with HT-29, with NCI-H460 and in the assay on MIA PaCa-2 was ≥ 5.30 in each case.
For the compound `NCCCn1cc(-c2ccc(OC(F)(F)F)cc2CN)c2cc(CN3CCN(Cc4cccc5c4OCO5)CC3)ccc21` [C304; HCl], the pEC50 in the assay on NCI-H460 and in the assay on MIA PaCa-2 was ≥ 5.30 throughout.
`COc1ccc(CN2CCN(Cc3ccc4c(c3)c(-c3ccc(OC(F)(F)F)cc3CN)cn4CCCN)CC2)c(Cl)c1` [C305; HCl]: the pEC50 in the assay on NCI-H460 and in the assay on MIA PaCa-2 was ≥ 5.30 throughout.
For `COc1cccc(CN2CCN(Cc3ccc4c(c3)c(-c3ccc(OC(F)(F)F)cc3CN)cn4CCCN)CC2)c1Cl` [C306; HCl], the negative logarithm of the EC50 (pEC50) in the assay on NCI-H460 and with MIA PaCa-2 was ≥ 5.30 throughout.
With `COc1ccc(Cl)c(CN2CCN(Cc3ccc4c(c3)c(-c3ccc(OC(F)(F)F)cc3CN)cn4CCCN)CC2)c1` [C307; HCl], the pEC50 in the assay with NCI-H460 and in the assay on MIA PaCa-2 was ≥ 5.30 each time.
Take `COc1cc(CN2CCC3(CC2)CCN(Cc2ccc4c(c2)c(-c2ccc(OC(F)(F)F)cc2)cn4CCCN)C3)cc(OC)c1` [C308; HCl]: the negative logarithm of the EC50 (pEC50) in the assay on NCI-H460 and in the assay with MIA PaCa-2 was ≥ 5.30 throughout.
Consider `COc1cccc(CN2CCC3(CC2)CCN(Cc2ccc4c(c2)c(-c2ccc(OC(F)(F)F)cc2)cn4CCCN)C3)c1` [C309; HCl], for which the pEC50 in the assay with NCI-H460 and with MIA PaCa-2 was ≥ 5.30 each time.
